For this data set, the system named is CHIKV. It counts as cell-based, chikungunya virus.

In turn, “Hs_SHC2_11 (sense TCGGTGCTGGTGGAACAGAAA; chemistry not given here)” came in with a Score_si1 of 2.36. “s26229 (sense GGTGGTATACGGGACCAAT; chemistry not given here)” displayed a Score_si3 of -0.1. On to “s50141 (sense AGATACCTTTATGAATATA; chemistry not given here) [reference compound]”, for which the Score_si3 is recorded as -0.76. The substance “Hs_SAFB_2 (sense AAGGTGGTAATCCTGACGAAA; chemistry not given here)” returned a Score_si2 of 0.95. With “Hs_PPP1R8_8 (AACCCTGAAGCTGTAAATGAA; chemistry not given here)”, the Score_si3 is recorded as 0.62. In the case of “s16837 (CAATGATCCAATCCACGAA; chemistry not given here)”, the Score_si1 stood at 1.36. “s21554 (sense CAGTATTGGTTATGAGTCT; chemistry not given here)” displayed a Score_si4 of 0.67. Regarding “s38243 (AGAAATTCCGGAACCAATT; chemistry not given here)”, the Score_si2 is 0.8.

“Hs_AQP3_2 (CTGGATGTACATACATAAGTA; chemistry not given here)” had a Score_si3 of 1.09. The substance “Hs_XRN1_1 (CAGGTCGTAAATATCAAATAA; chemistry not given here)” yielded a Score_si3 of 1.08. “Hs_LRP6_7 (CTGGATGGTTCTGACCGTGTA; chemistry not given here)” yielded a Score_si1 of 1.93. On the same count and under the same terms, to “Hs_PTBP1_2 (sense ATGGTATGAGTGTAATCTAAA; chemistry not given here) [reference compound]” belongs -1.35.

As for “s20649 (sense GAATTACGGAGTCAACAAA; chemistry not given here) [reference compound]”, the Score_si3 is listed as -1.04. “Hs_BRD8_4 (CCGGCTGTCTCCACTACTGAA; chemistry not given here)” returned a Score_si1 of 2.93.

With “Hs_BOP1_2 (CTGCCATGGCATGGTGTACAA; chemistry not given here)”, the Score_si2 stood at 2.23. Regarding “Hs_SSP411_1 (sense ATGGCCTTGCATACCCTGAAA; chemistry not given here)”, the Score_si1 worked out at 2.33. Substance “Hs_CCDC6_2 (sense CAGGAATTTCAGGTCAACAAA; chemistry not given here) [reference compound]” had a Score_si2 of -0.83.

“Hs_GP1BB_3 (sense CTGCTGCGTCTCCCTTCCAAA; chemistry not given here) [reference compound]” had a Score_si2 of -0.99. The substance “Hs_XRN1_2 (AAGGAAATAGATAAACTGTAA; chemistry not given here)” returned a Score_si1 of 1.94. “Hs_PTBP1_3 (sense CGACATAATCTCTGTATTATA; chemistry not given here) [reference compound]”: the Score_si3 is -0.58. Regarding “s37726 (ACTTTTCCCTCTCTCCTAA; chemistry not given here)”, the Score_si3 stood at 0.28. “s33582 (CACCTAGAGTACGAAAACA; chemistry not given here)”: the Score_si1 was 1.69. Regarding “s16318 (AGGCATCTTTGAGACGATT; chemistry not given here)”, the Score_si3 came out at 0.61. As for “Hs_PDLIM5_5 (CAGCAGGGAAACGAACTCCGA; chemistry not given here)”, the Score_si2 is on record as 1.07. Still for that read-out and setting: to “s27209 (sense GGGTATAGAGGATAACCAA; chemistry not given here) [reference compound]” belongs -0.58.

“Hs_PRSS15_4 (sense CCGGGACATCATTGCCTTGAA; chemistry not given here)” displayed a Score_si1 of 1.74. Substance “Hs_SDFR1_8 (sense CAGGTATATACAGCATATAAA; chemistry not given here) [reference compound]” registered a Score_si1 of -2.41.

Turning to “Hs_NRCAM_1 (CAGGCCTTCAGTACAAAGTTA; chemistry not given here)”, the Score_si3 came out at 0.75. Still for that read-out and setting: under “Hs_CCNF_7 (sense CACGGACAACACTTACAAGTA; chemistry not given here)” stands 0.92. For the substance “Hs_ATP6AP2_1 (ATGGGCTAATATGGATACTAA; chemistry not given here)”, the Score_si2 turned out to be 0.84.

The substance “s21626 (sense GGCAGTTGATTGTGGATGA; chemistry not given here)” had a Score_si4 of 0.37. Take “s3114 (GAAGAGCAGTCACAGATCA; chemistry not given here)”: the Score_si2 is reported as 2.05. Take “Hs_EIF2B5_2 (CAAAGTGAAGATGAAAGGTTA; chemistry not given here)”: the Score_si1 amounted to 1.62. In turn, “s12381 (sense AGGCTCAGATCGACCAATA; chemistry not given here)” had a Score_si3 of 0.71. Consider “Hs_RAD51L3_5 (sense CTGGAAGAGGTAGCTCAGAAA; chemistry not given here)”, for which the Score_si1 is given as 2.71.

For “Hs_ACYP1_1 (AAGGATTACCACTGTACACAA; chemistry not given here) [reference compound]”, the Score_si1 was -2.79. Substance “s15684 (sense GGAGCTGATCATCAACAAA; chemistry not given here)” showed a Score_si4 of 1.33. Substance “s9627 (GGACCAGTTTGAGAGTGAA; chemistry not given here)” showed a Score_si2 of 1.39. On to “Hs_PITRM1_1 (TAGGTTCTTCACGTACGGTAA; chemistry not given here) [reference compound]”, for which the Score_si1 is -1.2. In turn, “s2529 (sense GCACCCGGTTTATCAGTAA; chemistry not given here)” yielded a Score_si4 of 0.17. “s9326 (GGACTTAGTATAATGTGAA; chemistry not given here)” showed a Score_si2 of 1. In turn, “Hs_UMPS_2 (CAGGAGAAACCTGTTTAATCA; chemistry not given here)” gave a Score_si1 of 3.14.

Substance “Hs_ROCK1_9 (sense AACGGTTAGAACAAGAGGTAA; chemistry not given here)” showed a Score_si1 of 1.18. Substance “s20340 (sense CAGGCTATCTGAACACGGT; chemistry not given here)” showed a Score_si3 of 1.49.

Substance “Hs_NUDT1_4 (CCGGGTTTCATCTGGAATTAA; chemistry not given here)” registered a Score_si2 of 1.96. Regarding “Hs_PITRM1_2 (CCGGTGAATTACGTGGGTGAA; chemistry not given here) [reference compound]”, the Score_si4 is on record as -0.68. “Hs_NPEPL1_1 (CTGATTTATAGGGCAAGAGAA; chemistry not given here)”: the Score_si4 came out at 1.11. “Hs_WIG1_1 (CAGCATTTAGAGAGCAAGCAA; chemistry not given here)” gave a Score_si1 of 2.55. In turn, “Hs_PPP1R8_6 (TACAAATAAAGATGCCCTAAA; chemistry not given here)” returned a Score_si2 of 0.7. With “s25626 (sense CAAATCCTATAGTATAACA; chemistry not given here) [reference compound]”, the Score_si4 is given as -0.37.

As for “s38242 (CGGTCTCATGTACCAGAAA; chemistry not given here)”, the Score_si3 was 0.52.

Regarding “Hs_CLCN6_4 (sense AAGATGTGAATTCAAGTATCA; chemistry not given here)”, the Score_si1 is given as 2.72.

Source of the values: paper PMC4865845, “A human genome-wide loss-of-function screen identifies effective chikungunya antiviral drugs” (Nature Communications, 2016).
